Earlier results on four molecules are cited in patent US11331258B2, “Method for dyeing keratinous material, comprising the use of an organosilicon compound, an oligoalkylsiloxane and a dyeing compound” (Henkel AG & Co. KGaA, priority 2019, dated 2022).

Like-named read-outs stand apart in the source and are kept apart here.

In the case of `O=C([O-])C1=NN(c2ccc(S(=O)(=O)[O-])cc2)C(=O)C1N=Nc1ccc(S(=O)(=O)[O-])cc1.[Na+].[Na+].[Na+]` (stereo not shown) [Acid Yellow 23, trisodium salt of 4,5-dihydro-5-oxo-1-(4-sulfophenyl)-4-((4-sulfophenyl)azo)-1H-pyrazole-3-carboxylic acid], the solubility in water result (at about 25° C.) is given as “highly soluble”.

For `CCN(Cc1cccc(S(=O)(=O)[O-])c1)c1ccc(C(=C2C=CC(=[N+](CC)Cc3cccc(S(=O)(=O)[O-])c3)C=C2)c2ccccc2S(=O)(=O)[O-])cc1.[Na+].[Na+]` [Acid Blue 9], the solubility in water result (25° C.) is listed as “more than 20 % by weight”.

On to `O=S(=O)([O-])c1ccc(N=Nc2c(O)ccc3ccccc23)cc1.[Na+]` [Acid Orange 7, sodium salt of 4-[(2-hydroxy-1-naphthyl)azo]benzene sulphonate], for which, where the note is “25° C.”, the solubility in water result is listed as “more than 7 g/L”.

Turning to `Nc1cc(S(=O)(=O)[O-])cc2cc(S(=O)(=O)[O-])c(N=Nc3ccccc3)c(O)c12.[Na+].[Na+]` [Acid Red 33, diantrium salt of 5-amino-4-hydroxy-3-(phenylazo)-naphthalene-2,7-disulphonate], for the setting “25° C.”, the solubility in water entry is on record as “about 2.5 g/L”.
